According to ChEMBL document CHEMBL5321227, “Lysosome-targeting phenalenones as efficient type I/II photosensitizers for anticancer photodynamic therapy” (Eur J Med Chem, 2023):
Calls of active or inactive are those of the source. The calls are words filed in the database; no cut-off is given here.

Columns and labels:
[1] = Drug metabolism in human MDA-MB-231 cells assessed as increase in carboxylesterase mediated SR release at 5 uM incubated for 2 hrs by confocal laser scanning microscopy; type: ADME, cell-based; settings: mda-mb-231, 2 h
[2] = Toxicity in BALB/c mouse xenografted with mouse 4T1 cells assessed as histopathological lesion in spleen at 5 mg/kg,IT(Intratumoral) for 14 days by Hematoxylin and Eosin staining based microscopy; type: organism-based; settings: in vivo, other, 336 h, time 14 day
[3] = Drug uptake in tumor of BALB/c mouse xenografted with mouse 4T1 cells at 5 mg/kg,IT(Intratumoral) and measured for 6 to 72 hrs by fluorescence imaging analysis; type: ADME, organism-based, Neoplasm; settings: in vivo, other, time 6-72 hrs
4T1 [4] = test: Antitumor activity against mouse 4T1 cells xenografted in BALB/c mouse assessed as tumor growth inhibition at 5 mg/kg,IT(Intratumoral) for 14 days relative to control; type: functional, organism-based; settings: time 14.0 day
[5] = Toxicity in BALB/c mouse xenografted with mouse 4T1 cells assessed as tissue destruction with large spaces in liver at 5 mg/kg,IT(Intratumoral) for 14 days followed by photoirradiation with 500 to 700nm light (0.5 W) for 6 hrs by Hematoxylin and Eosin staining based microscopy; type: organism-based; settings: in vivo, other, 342 h, time 14.25 day
[6] = Toxicity in BALB/c mouse xenografted with mouse 4T1 cells assessed as tissue destruction with large spaces in spleen at 5 mg/kg,IT(Intratumoral) for 14 days followed by photoirradiation with 500 to 700nm light (0.5 W) for 6 hrs by Hematoxylin and Eosin staining based microscopy; type: organism-based; settings: in vivo, other, 342 h, time 14.25 day
[7] = Toxicity in BALB/c mouse xenografted with mouse 4T1 cells assessed as tissue destruction with large spaces in tumor at 5 mg/kg,IT(Intratumoral) for 14 days followed by photoirradiation with 500 to 700nm light (0.5 W) for 6 hrs by Hematoxylin and Eosin staining based microscopy; type: organism-based; settings: in vivo, other, 342 h, time 14.25 day
4T1 [8] = test: Antitumor activity against mouse 4T1 cells xenografted in BALB/c mouse assessed as tumor growth inhibition at 5 mg/kg,IT(Intratumoral) for 14 days followed by photoirradiation with 500 to 700nm light (0.5 W) for 6 hrs; type: functional, organism-based; settings: time 14.25 day
[9] = Toxicity in BALB/c mouse xenografted with mouse 4T1 cells assessed as histopathological lesion in kidney at 5 mg/kg,IT(Intratumoral) for 14 days by Hematoxylin and Eosin staining based microscopy; type: organism-based; settings: in vivo, other, 336 h, time 14 day
[10] = Toxicity in BALB/c mouse xenografted with mouse 4T1 cells assessed as body weight change at 5 mg/kg,IT(Intratumoral) for 14 days followed by photoirradiation with 500 to 700nm light (0.5 W) for 6 hrs; type: organism-based; settings: in vivo, other, 342 h, time 14.25 day
[11] = Toxicity in BALB/c mouse xenografted with mouse 4T1 cells assessed as histopathological lesion in liver at 5 mg/kg,IT(Intratumoral) for 14 days by Hematoxylin and Eosin staining based microscopy; type: organism-based; settings: in vivo, other, 336 h, time 14 day
[12] = Toxicity in BALB/c mouse xenografted with mouse 4T1 cells assessed as histopathological lesion in tumor at 5 mg/kg,IT(Intratumoral) for 14 days by Hematoxylin and Eosin staining based microscopy; type: organism-based; settings: in vivo, other, 336 h, time 14 day

Question: Which Drug metabolism [1] does the source give for `O=C(CCl)Nc1c(I)cc2c3c(cccc13)C(=O)C=C2` here?
Answer: Metabolite_Detected

Question: And the Activity [2]?
Answer: Non-Toxic

Question: And the Drug uptake [3]?
Answer: Not Active

Question: What about the Activity (4T1 [4]) of the same compound?
Answer: Active

Question: What about the Activity [5] of the same compound?
Answer: Toxic

Question: And the Activity [6]?
Answer: Toxic

Question: And the Activity [7]?
Answer: Toxic

Question: And the Activity (4T1 [8])?
Answer: Active

Question: What about the Activity [9] of the same compound?
Answer: Non-Toxic

Question: And the Activity [10]?
Answer: Toxic

Question: And the Activity [11]?
Answer: Non-Toxic

Question: What about the Activity [12] of the same compound?
Answer: Non-Toxic
